Read-outs that look alike come from different tables or passages of the source.
Columns and labels:
KIF18A = KIF18A (Homo sapiens (Human), UniProt Q8NI77); test: KIF18A ATPase activity under tubulin stimulation (ADP-Glo assay); format: biochemical; conditions: KIF18A 30 nM, ATP 150 μM, pig microtubules
PK study in ICR mice = format: in vivo, mouse; conditions: plasma, route and dose not given
Summary of the method: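 Fasted ICR mice (3/group) dosed intravenously or by oral gavage; plasma sampled up to 24 h. Plasma levels measured by LC-MS/MS after protein precipitation. T½, AUC0-t, CL, Vss and F derived by noncompartmental analysis.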

A2780 cells = test: A2780 cell anti-proliferation assay; format: cell-based; conditions: 6 days, Cell Titer-Glo
Procedure: A2780 (ECACC) cells were cultured in RPMI-1640 complete medium (Gibco, A1049101) containing 10% fetal bovine serum (Gibco, 10099-141C), 100 U penicillin and 100 μg/mL streptomycin (Gibco, 15140-122). The Promega kit Cell Titer-Glo (Promega: G7572) was used in this method for test.
A2780 cells were cultured in T75 cell flasks (Corning, 430641) and the cells were placed in a 37° C., 5% CO2 incubator. Cells were passaged when reaching a cell density of 70%-80%, once every five days. To perform the experiment, the test compounds were dissolved in DMSO to prepare a 10 mM stock solution, and the test compounds were added to the 384-well cell test plate (Corning, 3765) at the predetermined concentration (19.5 nM-[…]) using ECHO. A2780 cells were digested and 4000 cells (60 μL medium) were seeded per well in the test plate. The 384-well plate was then centrifuged at 500 rpm for 1 minute, and then placed in a 37° C., 5% CO2 incubator for 6 days of cultivation. Six days later, the cell culture plate was equilibrated for 10 minutes at room temperature, 25 μL of Cell Titer-Glo was added to each well, and the mixture was shaken and mixed well and let stand for 5 minutes. The luminescence values for samples in various wells were read using a microplate reader in Luminescence mode.
The percentage of inhibition of A2780 cell proliferation by the test compound at each concentration was calculated by comparing with the values of the control group (0.2% DMSO). The IC50 values of the compounds were obtained by concentration-inhibition rate nonlinear regression analysis of the test compounds using GraphPad Prism 9.

[1] = both sexes, mouse, read-out: AUC
[2] = both sexes, mouse, read-out: Cmax

Chain of KIF18A (Q8NI77 whole entry): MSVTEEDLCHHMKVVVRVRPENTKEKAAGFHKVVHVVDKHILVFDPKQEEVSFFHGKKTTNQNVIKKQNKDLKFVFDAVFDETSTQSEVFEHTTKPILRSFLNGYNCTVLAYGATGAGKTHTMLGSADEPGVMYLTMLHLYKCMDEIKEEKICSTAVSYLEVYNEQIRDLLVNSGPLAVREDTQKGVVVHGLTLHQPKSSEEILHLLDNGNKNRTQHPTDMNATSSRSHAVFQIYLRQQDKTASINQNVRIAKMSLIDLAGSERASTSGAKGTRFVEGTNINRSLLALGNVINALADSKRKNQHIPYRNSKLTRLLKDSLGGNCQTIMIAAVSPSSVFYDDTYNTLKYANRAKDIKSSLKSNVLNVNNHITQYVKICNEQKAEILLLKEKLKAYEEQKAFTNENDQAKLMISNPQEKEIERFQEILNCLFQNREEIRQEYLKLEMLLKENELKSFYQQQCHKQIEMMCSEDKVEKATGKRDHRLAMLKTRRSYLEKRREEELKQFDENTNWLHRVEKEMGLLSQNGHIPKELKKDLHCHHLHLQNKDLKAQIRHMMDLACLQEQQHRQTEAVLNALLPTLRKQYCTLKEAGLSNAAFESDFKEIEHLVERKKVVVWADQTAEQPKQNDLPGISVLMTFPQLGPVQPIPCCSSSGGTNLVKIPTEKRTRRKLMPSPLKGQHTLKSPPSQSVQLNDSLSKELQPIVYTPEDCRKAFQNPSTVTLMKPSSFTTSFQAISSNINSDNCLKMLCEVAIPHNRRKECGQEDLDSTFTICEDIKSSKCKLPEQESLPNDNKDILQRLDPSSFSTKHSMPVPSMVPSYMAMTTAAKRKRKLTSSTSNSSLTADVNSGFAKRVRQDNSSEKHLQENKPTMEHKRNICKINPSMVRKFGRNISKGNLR
Chain of KIF18A (P02550 whole entry partner): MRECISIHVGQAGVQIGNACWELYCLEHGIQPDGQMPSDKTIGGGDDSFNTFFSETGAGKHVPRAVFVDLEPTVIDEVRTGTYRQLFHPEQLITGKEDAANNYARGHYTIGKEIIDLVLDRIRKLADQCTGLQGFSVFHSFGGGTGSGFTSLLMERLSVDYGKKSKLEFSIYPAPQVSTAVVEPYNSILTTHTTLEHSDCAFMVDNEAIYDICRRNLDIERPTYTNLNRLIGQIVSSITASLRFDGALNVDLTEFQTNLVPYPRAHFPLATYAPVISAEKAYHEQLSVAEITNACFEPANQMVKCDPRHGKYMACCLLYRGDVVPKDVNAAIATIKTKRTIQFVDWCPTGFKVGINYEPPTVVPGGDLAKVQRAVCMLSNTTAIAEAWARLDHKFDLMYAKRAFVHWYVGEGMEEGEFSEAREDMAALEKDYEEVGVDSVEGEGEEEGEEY
Chain of KIF18A (P02554 whole entry partner): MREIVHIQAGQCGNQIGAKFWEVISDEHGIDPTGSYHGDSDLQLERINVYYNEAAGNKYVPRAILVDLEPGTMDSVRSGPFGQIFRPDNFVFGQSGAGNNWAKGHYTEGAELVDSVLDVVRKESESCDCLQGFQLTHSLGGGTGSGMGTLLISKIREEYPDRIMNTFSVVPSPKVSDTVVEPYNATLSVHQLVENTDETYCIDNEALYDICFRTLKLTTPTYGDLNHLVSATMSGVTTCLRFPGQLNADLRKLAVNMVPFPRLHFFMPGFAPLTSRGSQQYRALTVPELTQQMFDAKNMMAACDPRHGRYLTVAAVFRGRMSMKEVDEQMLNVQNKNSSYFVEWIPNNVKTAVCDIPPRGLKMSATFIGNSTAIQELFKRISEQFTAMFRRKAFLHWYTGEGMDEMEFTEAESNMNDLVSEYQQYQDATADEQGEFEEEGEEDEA

## O=C(Nc1cccc2c1cc1n2CCOC1)c1ccc(NS(=O)(=O)CCO)cc1N1CCC2(CC1)CC2 [Example 235, N-(3,4-dihydro-1H-[1, 4]oxazino[4,3-a]indol-9-yl)-4-(2-hydroxyethylsulfonamido)-2-(6-azaspiro[2.5]octan-6-yl)benzamide]
KIF18A
  IC50: ≤ 50 nM
PK study in ICR mice; [1]
  AUC: 5980 ng·h/mL
PK study in ICR mice; [2]
  Cmax: 2990 ng/mL
A2780 cells; Homo sapiens, A2780, 144 h
  IC50: > 10000 nM

## CC1(C)Cn2c(cc3c(NC(=O)c4ccc(NS(=O)(=O)CCO)cc4N4CCC(=C(F)F)CC4)cccc32)CO1 [Example 370, 2-(4-(difluoromethylene)piperidin-1-yl)-N-(3,3-dimethyl-3,4-dihydro-1H-[1,4]oxazino[4,3-a]indol-9-yl)-4-((2-hydroxyethyl)sulfonamido)benzamide]
KIF18A
  IC50: 50 to 500 nM
PK study in ICR mice; [1]
  AUC: 52400 ng·h/mL
PK study in ICR mice; [2]
  Cmax: 3580 ng/mL
A2780 cells; Homo sapiens, A2780, 144 h
  IC50: > 10000 nM

## CC1(C)Cn2c(cc3c(NC(=O)c4ccc(NS(=O)(=O)CCO)cc4N4CCC(=C(F)F)CC4)ccc(C#N)c32)CO1 [Compound 393, N-(6-cyano-3,3-dimethyl-3,4-dihydro-1H-[1,4]oxazino[4,3-a]indol-9-yl)-2-(4-(difluoromethylene)piperidin-1-yl)-4-((2-hydroxyethyl)sulfonamido)benzamide]
KIF18A
  IC50: 50 to 500 nM
PK study in ICR mice; [1]
  AUC: 22300 ng·h/mL
PK study in ICR mice; [2]
  Cmax: 3840 ng/mL
A2780 cells; Homo sapiens, A2780, 144 h
  IC50: > 10000 nM

## CC1(C)Cn2c(nc3c(NC(=O)c4ccc(NS(=O)(=O)CCO)cc4N4CCC5(CC4)CC5)cccc32)CO1 [Compound 391, N-(3,3-dimethyl-3,4-dihydro-1H-benzo[4,5]imidazo[2,1-c][1,4]oxazin-9-yl)-4-((2-hydroxyethyl)sulfonamido)-2-(6-azaspiro[2.5]octan-6-yl)benzamide]
KIF18A
  IC50: 50 to 500 nM
PK study in ICR mice; [1]
  AUC: 38000 ng·h/mL
PK study in ICR mice; [2]
  Cmax: 4370 ng/mL
A2780 cells; Homo sapiens, A2780, 144 h
  IC50: > 10000 nM

## O=C(Nc1cccc2c1cc1n2CCC(F)(F)C1)c1ccc(NS(=O)(=O)CCO)cc1N1CCC(=C(F)F)CC1 [Example 374, N-(8,8-difluoro-6,7,8,9-tetrahydropyridino[1,2-a]indol-1-yl)-2-(4-(difluoromethylene)piperidin-1-yl)-4-((2-hydroxyethyl)sulfonamido)benzamide]
KIF18A
  IC50: ≤ 50 nM
PK study in ICR mice; [1]
  AUC: 26500 ng·h/mL
PK study in ICR mice; [2]
  Cmax: 3700 ng/mL
A2780 cells; Homo sapiens, A2780, 144 h
  IC50: 8500 nM

## O=C(Nc1ccc(F)c2c1nc1n2CCOC1)c1ccc(NS(=O)(=O)CCO)cc1N1CCC2(CC1)CC2 [Example 308, N-(6-fluoro-3,4-dihydro-1H-benzo[4,5]imidazo[2,1-c][1,4]oxazin-9-yl)-4-((2-hydroxyethyl)sulfonamido)-2-(6-azaspiro[2.5]octan-6-yl)benzamide]
KIF18A
  IC50: ≤ 50 nM
PK study in ICR mice; [1]
  AUC: 5650 ng·h/mL
PK study in ICR mice; [2]
  Cmax: 1100 ng/mL
A2780 cells; Homo sapiens, A2780, 144 h
  IC50: > 10000 nM

## O=C(Nc1ccc(F)c2c1cc1n2CCOC1)c1ccc(NS(=O)(=O)CCO)cc1N1CCC(=C(F)F)CC1 [Example 321, 2-(4-(difluoromethylene)piperidin-1-yl)-N-(6-fluoro-3,4-dihydro-1H-[1,4]oxazino[4,3-a]indol-9-yl)-4-((2-hydroxyethyl)sulfonamido)benzamide]
KIF18A
  IC50: ≤ 50 nM
PK study in ICR mice; [1]
  AUC: 16000 ng·h/mL
PK study in ICR mice; [2]
  Cmax: 4140 ng/mL
A2780 cells; Homo sapiens, A2780, 144 h
  IC50: > 10000 nM

## COc1ccc(NC(=O)c2ccc(NS(=O)(=O)CCO)cc2N2CCC(=C(F)F)CC2)c2cc3n(c12)CCOC3 [Compound 405, 2-(4-(difluoromethylene)piperidin-1-yl)-4-((2-hydroxyethyl)sulfonamido)-N-(6-methoxy-3,4-dihydro-1H-[1,4]oxazinyl[4,3-a]indol-9-yl)benzamide]
KIF18A
  IC50: ≤ 50 nM
PK study in ICR mice
  AUC: 27572 ng·h/mL
  Cmax: 4205 ng/mL
A2780 cells
  IC50: > 10000 nM

Source: US20260070887A1 (Shenzhen Zhongge Biological Technology Co., Ltd., priority 2022, published 2026)
